Laboratory results reported in PubChem BioAssay (NCI).
“And” between values parts separate entries of the source, which are not always exact repeats. Equal entries are not always repeated.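 In this assay, cells in 96-well plates receive the compound at five concentrations for 48 hours. Endpoints are linearly interpolated between the surrounding concentrations. Abbreviation: GI50, concentration required for 50% inhibition of growth. TGI: concentration producing complete growth inhibition.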

Tests used:
Test in all cases: NCI-60 cell line screen, 48 h
CAKI-1 renal = system: CAKI-1 renal
CCRF-CEM leukemia = system: CCRF-CEM leukemia
DU-145 prostate = system: DU-145 prostate
HOP-62 NSCLC = system: HOP-62 NSCLC
K-562 leukemia = system: K-562 leukemia
KM12 colon = system: KM12 colon
MCF7 breast = system: MCF7 breast
NCI-H460 lung = system: NCI-H460 lung
OVCAR-4 ovarian = system: OVCAR-4 ovarian
SK-MEL-2 melanoma = system: SK-MEL-2 melanoma
SK-MEL-5 melanoma = system: SK-MEL-5 melanoma
SK-OV-3 ovarian = system: SK-OV-3 ovarian
UACC-62 melanoma = system: UACC-62 melanoma

Row | Compound | TGI (CAKI-1 renal) [µM] | TGI (CCRF-CEM leukemia) [µM] | TGI (DU-145 prostate) | TGI (HOP-62 NSCLC) [µM] | TGI (K-562 leukemia) [µM] | TGI (KM12 colon) | TGI (MCF7 breast) [µM] | TGI (NCI-H460 lung) | TGI (OVCAR-4 ovarian) [µM] | TGI (SK-MEL-2 melanoma) | TGI (SK-MEL-5 melanoma) | TGI (SK-OV-3 ovarian) [µM] | TGI (UACC-62 melanoma) | GI50 (CAKI-1 renal) [µM] | GI50 (K-562 leukemia) [µM] | GI50 (KM12 colon) [µM] | GI50 (NCI-H460 lung) [µM] | GI50 (SK-MEL-5 melanoma) [µM] | GI50 (SK-OV-3 ovarian) [µM] | GI50 (UACC-62 melanoma) [µM]
1 | c1ccc(C[n+]2cccc(-c3cc4ccccc4[nH]3)c2)cc1 | > 100 | 38.6 | > 100 µM | 96.4 | 77.8 | 32 µM | 98.8 | > 100 µM | > 100 | 32.8 µM | 23.8 µM | > 100 | 32.1 µM |  |  |  |  |  |  | 
2 | CCCCC(=O)Oc1ccc2c(C)cc(=O)oc2c1 | > 100 | > 100 | > 100 µM | > 100 | > 100 | > 100 µM | > 100 | > 100 µM | > 100 | > 100 µM | > 100 µM |  | > 100 µM |  |  |  |  |  |  | 
3 | COc1ccc(Cc2nccc3cc(OC)c(OC)cc23)cc1OC | > 100 | > 100 | > 100 µM | > 100 | > 100 | > 100 µM | > 100 | > 100 µM | > 100 | > 100 µM | 99.3 µM | > 100 | > 100 µM |  |  |  |  |  |  | 
4 | c1ccc(-c2nnc(-c3nsc4ccccc34)o2)cc1 |  | > 100 |  | > 100 | > 100 | > 100 µM |  |  | > 100 | > 100 µM | > 100 µM |  | > 100 µM |  |  |  |  |  |  | 
5 | CCOC(=O)C1=C(C)N(NC(N)=O)C2(O)CCCC(=O)C12C (stereo not drawn) | > 100 |  |  |  |  | > 100 µM |  |  | > 100 | > 100 µM | > 100 µM | > 100 | > 100 µM |  |  |  |  |  |  | 
6 | CC(C)C1OC(/C=C/c2ccccc2)OCC1(C)C (stereo not drawn) | > 100 | 41.8 | > 100 µM | > 100 | > 100 | > 100 µM | > 100 | 39.9 µM | > 100 | 37.5 µM | 37.5 µM | > 100 | > 100 µM |  |  |  |  |  |  | 
7 | O=C(O)c1oc(C(=O)O)c(C(=O)O)c1C(=O)O | > 100 | > 100 | > 100 µM | > 100 | > 100 | > 100 µM |  | > 100 µM | > 100 | > 100 µM | > 100 µM |  | > 100 µM |  |  |  |  |  |  | 
8 | COc1cccc(CC2Cc3ccccc3CC(=O)N2)c1 (stereo not drawn) | 68.6 | > 100 | > 100 µM | 72.5 | > 100 | > 100 µM | 92 | 72.8 µM | > 100 | > 100 µM | 54.6 µM | > 100 | > 100 µM |  |  |  |  |  |  | 
9 | CCCCS(=O)(=O)Nc1ccc(Nc2c3ccccc3nc3ccccc23)c(OC)c1 | 10.1 | 6.26 |  | 10.7 | 16.5 | 14.8 µM | 17.4 | 5.79 µM | 18.8 | 30.9 µM | 18.1 µM | 16.9 | 7.48 µM |  |  |  |  |  |  | 
10 | N=C(N)SCc1cccc2c(=O)cc(-c3ccccc3)oc12 | 11.3 | 18.6 | 16.2 µM | 44.8 | > 42.2 | 27.3 µM | 16.3 | 22.9 µM | 31.2 | 25.2 µM | 29.8 µM | 30.5 | 32.4 µM |  |  |  |  |  |  | 
11 | C/C(=C\c1ccc(Cl)c(Cl)c1)[N+](=O)[O-] | 2.51 |  | 2.92 µM and 3.12 µM | 3.15 |  | 3.29 µM and 4.16 µM | 17.3 | 14 µM and > 100 µM | 3.09 | 4.05 µM and 4.03 µM | 11.3 µM and 3.94 µM | 29.8 | 3.51 µM and 4.8 µM | 1.1 | 0.731 | 1.71 | 3.15 | 3.05 | 16.3 | 1.74
12 | OC1CN2Cc3cc4c(cc3[C@]13C=C[C@@H](O)CC23)OCO4 (stereo partly drawn) | > 100 | 48.5 | 71.9 µM | > 100 | > 100 | > 100 µM | > 100 | 45.6 µM | > 100 | > 100 µM | > 100 µM | > 100 | > 100 µM |  |  |  |  |  |  | 
13 | NC(CCOCCP(=O)(O)CCOCCC(N)C(=O)O)C(=O)O (stereo not drawn) | > 100 | > 100 | > 100 µM |  | > 100 | > 100 µM | > 100 | > 100 µM | > 100 | > 100 µM | > 100 µM | > 100 | > 100 µM |  |  |  |  |  |  | 
14 | O=C(O)C12CCCC(CCC1)C2 | > 100 | > 100 |  | > 100 | > 100 | > 100 µM |  | > 100 µM | > 100 | > 100 µM | > 100 µM | > 100 | > 100 µM |  |  |  |  |  |  | 
15 | O=C1OCc2cccc3c2-c2c1cccc2C(=O)OC3 | > 100 |  |  | > 100 | > 100 | > 100 µM |  |  | > 100 | > 100 µM | > 100 µM | > 100 | > 100 µM |  |  |  |  |  |  | 
16 | CC(C)NCCC(O)c1cc2ccccc2o1 (stereo not drawn) | > 100 |  | > 100 µM | > 100 | > 100 | > 100 µM | > 100 | > 100 µM | > 100 | > 100 µM | > 100 µM | > 100 | > 100 µM |  |  |  |  |  |  | 
17 | O=C1/C(=C/c2ccc(Cl)cc2)N=C(c2ccccc2)N1c1ccc(S(=O)(=O)Nc2nccs2)cc1 | > 100 | 87 | > 100 µM | > 100 | > 100 | > 100 µM | 82.9 | > 100 µM | > 100 | 47.3 µM | 66.6 µM | > 100 | 53.1 µM |  |  |  |  |  |  | 
